Source: patent US8022203B2, “Amino derivatives of beta-homoandrostanes and beta-heteroandrostanes” (Sigma-Tau Industrie Farmaceutiche Riunite S.p.A., priority 2006, dated 2011)
Where a name gives a salt, the structure may show the parent alone.

What was measured:
[1] = molecular target: Na^+,K^+-ATPase (Canis lupus familiaris, UniProt P50997); assay: Dog kidney Na+,K+-ATPase inhibition (hydrolysis of 32P-ATP); format: biochemical; details: Na^+,K^+-ATPase Inhibition IC50
[2] = system: spontaneous hypertensive rats of the Milan (MHS); assay: Systolic blood pressure fall in spontaneous hypertensive rats (MHS), tail-cuff; format: in vivo, rat; details: five weeks, vs vehicle control
[3] = system: hypertensive ouabain-sensitive rats (OS rats); assay: Systolic blood pressure fall in hypertensive ouabain-sensitive rats (OS rats), tail-cuff; format: in vivo, rat; details: 10 μg/kg/day by mouth, four weeks
Experimental: The ability of these compounds to lower blood pressure was tested by using animal models with genetic arterial hypertension, in particular, spontaneous hypertensive rats of the Milan (MHS) (Bianchi G., Ferrari P., Barber B. The Milan Hypertensive strain. In Handbook of hypertension. Vol. 4: Experimental and genetic models of hypertension. Ed. W. de jong-Elsevier Science Publishers B.V., 1984:328-349) and rats made hypertensive by chronic infusion of ouabain, according to Ferrari P., et al. J. Pharm. Exp. Ther. 1998, 285, 83-94.
The procedure adopted to test the antihypertensive activity of the compounds on the above mentioned model was the following: systolic blood pressure (SBP) and heart rate (HR) were measured by an indirect tail-cuff method.
SBP and HR were measured weekly 6 hours after the treatment.

| SMILES | IC50 [1] [µM] | SBP - % ([2]; 0.001 μg/kg/os daily) [%] | SBP - mm Hg (decrease in systolic blood pressure) ([2]; 0.001 μg/kg/os daily) | SBP - % ([2]; 0.01 μg/kg/os daily) [%] | SBP - mm Hg (decrease in systolic blood pressure) ([2]; 0.01 μg/kg/os daily) | SBP - % ([2]; 0.1 μg/kg/os daily) [%] | SBP - mm Hg (decrease in systolic blood pressure) ([2]; 0.1 μg/kg/os daily) | SBP - % ([2]; 1 μg/kg/os daily) [%] | SBP - mm Hg (decrease in systolic blood pressure) ([2]; 1 μg/kg/os daily) | SBP - % ([2]; 10 μg/kg/os daily) [%] | SBP - mm Hg (decrease in systolic blood pressure) ([2]; 10 μg/kg/os daily) | SBP - % [3] [%] | SBP - mm Hg (fall) [3] [mm Hg] | SBP mm Hg [3] [mm Hg] |
| --- | --- | --- | --- | --- | --- | --- | --- | --- | --- | --- | --- | --- | --- | --- |
| CC12CCC3C(CC(=O)NC4CC(=NOCCN)CCC43C)C1CCC2=O (stereo not drawn) [I-aa, (E,Z) 3-(2-Aminoethoxyimino)-6-aza-7a-homoandrostane-7,17-dione hydrochloride] | 25 | 0.0 | 1.0 +/− 1.1 mm Hg | 5.2 | 8.8 +/− 1.6 mm Hg | 6.5 | 11.3 +/− 1.5 mm Hg | 6.0 | 10.0 +/− 2.1 mm Hg | 7.1 | 12.3 +/− 1.1 mm Hg | 10.0 | 17.0 | 153.0 |
| CC12CCC3C(CCN(C=O)C4CC(=NOC5CCNC5)CCC34C)C1CCC2=O [I-ap, (E,Z) 3-[3-(R)-Pyrrolidinyl]oxyimino-6-aza-6-formyl-7a-homoandrostane-17-one hydrochloride] | 35 | – | – | – | – | – | – | – | – | – | – | 9.4 | 15.0 | 154.0 |
